From PMC9020739, “Identification of a two-component regulatory system involved in antimicrobial peptide resistance in Streptococcus pneumoniae” (PLoS Pathogens, 2022)
Where a SMILES comes first, the peptide text is derived from it. Bridges are numbered along the chain shown (N, C = ends). [ ]: non-standard residue; d: D form. The star is where a group is joined. X1 = CC[C@H](C)CCCCC(=O)*; Dab = NCC[C@H](N)C(=O)O

How the values were obtained:
[1] = target: BceAB transporter from S. pneumoniae (Streptococcus pneumoniae, UniProt A0A0H2ZN40); format: biochemical; settings: for nH (positive cooperativity): ATPase/GTPase activity as a function of nucleotide concentration, fitted with positive cooperativity, proteoliposomes
Experimental: E. coli BL21(DE3) cells were transformed with pRSF-Duet1-BceAB WT, K48A or E170Q and selected on LB-agar plates containing 50 μg/mL kanamycin. One colony was inoculated into in 2L-baffled flasks containing 500 mL of 2YT medium and 50 μg/mL kanamycin and grown at 37°C, 180 rpm to OD600 of 0.6. Protein expression was induced by adding IPTG to a final concentration of 1 mM. Induction was performed overnight at 25°C and cells were harvested by centrifugation at 7,000 g for 20 min.
Cells were resuspended in buffer A (HEPES-NaOH 100 mM pH 8.0, NaCl 150 mM) and lysed by passaging them three times through a cell disruptor (Microfluidizer, Microfluidics) at 18,000 psi (or 1,24 x 108 Pa). Undisrupted cells and cell debris were removed by centrifugation at 15,000 x g for 30 min at 4°C. Membranes were harvested from the supernatant after ultracentrifugation at 150,000 x g for 1 h at 4°C. Membranes were resuspended in 20 mL of buffer A and centrifuged once again at 150,000 x g for 1 h at 4°C. Membrane pellets were homogenized in buffer HEPES-NaOH 100 mM pH 8.0, NaCl 150 mM and 20% glycerol, and stored at -80°C.
For the purification of BceAB, membranes from 0,5 L cell culture were diluted in buffer B (100 mM d’HEPES-NaOH pH 8, 150 mM NaCl, 10% glycerol) to a protein concentration of 4 mg/mL and solubilized with 0.5% (w/v) LMNG for 2 h at 4°C. After ultracentrifugation at 150,000 x g for 1 h at 4°C, the supernatant containing solubilized proteins was diluted four times using buffer B and loaded on Ni^2+-charged immobilized metal-ion affinity chromatography (IMAC) column (1 mL HisTrap HP, Cytiva). The column was washed with 10 mL of buffer B containing 0.005% (w/v) LMNG and 20 mM of imidazole. The column was further washed with the same buffer until OD280nm reached basal levels. BceAB was eluted by buffer B containing 0.005% (w/v) LMNG and an imidazole gradient from 20 to 500 mM of imidazole. Purified BceAB was dialyzed into buffer B containing 0.005% (w/v) LMNG and stored at -80°C.
The proteoliposomes were prepared as previously described for the transporter BmrA [50]. Proteoliposomes were loaded on sucrose gradient with different layers of 400 μL of 50 mM HEPES-KOH pH 8.0 buffer containing 30, 20, 15 or 10% of sucrose. One mL of proteoliposomes was loaded on the top of the sucrose gradient and ultra-centrifuged at 200,000 x g for 12 h at 4°C. Proteoliposomes were typically collected from the 15% layer and were loaded on SDS-PAGE to analyze and quantify the presence of BceAB by using a standard-curve of purified BceAB and ImageJ.
These activities were performed as previously described.

S. pneumoniae R6 ΔbceAB = format: cell-based, Streptococcus pneumoniae; settings: R6 strain; 2-fold broth dilution, Todd-Hewitt medium, 37°C, 15 h; two to four biological replicates, each technical duplicates
Experimental: (§1) The MIC of various antimicrobial peptides for R6, R800 and D39 strains was determined by classical 2-fold broth dilution method. Cells were first grown in Todd-Hewitt medium at 37°C without agitation and in anaerobic conditions until the absorbance reaches approximatively 0.3. Complementation strains were grown with 0.5 μM ComS inducer until the appropriate OD. Cells were then diluted at final OD600nm = 0.002 in 96-well plates containing 300 μL of Todd-Hewitt medium (and 2 μM ComS inducer for the complementation strains) with serial dilutions of antimicrobial peptides. Pneumococcal growth was monitored by a microplate reader (TECAN) at 37°C without agitation. The absorbance was followed at 600 nm every 15 min for 15 h.

[2] = tested on: S. pneumoniae R6 ΔbceAB/tcs01; format: cell-based, Streptococcus pneumoniae; settings: R6 strain; 2-fold broth dilution, Todd-Hewitt medium, 37°C, 15 h; two to four biological replicates, each technical duplicates
Experimental: as §1

S. pneumoniae R6 WT = format: cell-based, Streptococcus pneumoniae; settings: R6 strain; for Minimum Inhibitory Concentration, WT: 2-fold broth dilution, Todd-Hewitt medium, 96-well plates, start OD600 0.002, 37°C, A600 followed 15 h, two to four biological replicates, each technical duplicates; for Fold sensitivity displayed by the KO strains: KO strains versus WT MIC
Experimental: as §1

S. pneumoniae R6 Δtcs01 = format: cell-based, Streptococcus pneumoniae; settings: R6 strain; 2-fold broth dilution, Todd-Hewitt medium, 37°C, 15 h; two to four biological replicates, each technical duplicates
Experimental: as §1

[3] = tested on: S. pneumoniae R800 ΔbceAB-Δhk01-PcomX-hk01; format: cell-based, Streptococcus pneumoniae; settings: R800 complementation strain, 2 μM ComS inducer; 2-fold broth dilution, Todd-Hewitt medium, 37°C, 15 h; at least biological triplicates, each technical duplicates
Experimental: as §1

S. pneumoniae D39 WT = format: cell-based, Streptococcus pneumoniae; settings: D39 strain; for Minimum Inhibitory Concentration, WT: 2-fold broth dilution, Todd-Hewitt medium, 37°C, 15 h, two to four biological replicates, each technical duplicates; for Fold sensitivity diplayed by the KO strains: KO strains versus WT MIC
Experimental: as §1

S. pneumoniae D39 ΔbceAB = format: cell-based, Streptococcus pneumoniae; settings: D39 strain; 2-fold broth dilution, Todd-Hewitt medium, 37°C, 15 h; two to four biological replicates, each technical duplicates
Experimental: as §1

S. pneumoniae D39 Δtcs01 = format: cell-based, Streptococcus pneumoniae; settings: D39 strain; 2-fold broth dilution, Todd-Hewitt medium, 37°C, 15 h; two to four biological replicates, each technical duplicates
Experimental: as §1

[4] = tested on: S. pneumoniae R800 bceAB-gfp; format: cell-based, Streptococcus pneumoniae; settings: R800 strain; 2-fold broth dilution, Todd-Hewitt medium, 37°C, 15 h; at least biological triplicates, each technical duplicates
Experimental: as §1

[5] = tested on: S. pneumoniae R800 ΔbceAB; format: cell-based, Streptococcus pneumoniae; settings: R800 strain; 2-fold broth dilution, Todd-Hewitt medium, 37°C, 15 h; at least biological triplicates, each technical duplicates
Experimental: as §1

S. pneumoniae R800 Δhk01 = format: cell-based, Streptococcus pneumoniae; settings: R800 strain; 2-fold broth dilution, Todd-Hewitt medium, 37°C, 15 h; at least biological triplicates, each technical duplicates
Experimental: as §1

[6] = tested on: S. pneumoniae D39 ΔbceAB/tcs01; format: cell-based, Streptococcus pneumoniae; settings: D39 strain; 2-fold broth dilution, Todd-Hewitt medium, 37°C, 15 h; two to four biological replicates, each technical duplicates
Experimental: as §1

S. pneumoniae R800 WT = format: cell-based, Streptococcus pneumoniae; settings: R800 strain; 2-fold broth dilution, Todd-Hewitt medium, 37°C, 15 h; at least biological triplicates, each technical duplicates
Experimental: as §1

[7] = tested on: S. pneumoniae R800 Δhk01-PcomX-hk01; format: cell-based, Streptococcus pneumoniae; settings: R800 complementation strain, 2 μM ComS inducer; 2-fold broth dilution, Todd-Hewitt medium, 37°C, 15 h; at least biological triplicates, each technical duplicates
Experimental: as §1

| Compound | Minimum Inhibitory Concentration, ΔbceAB (S. pneumoniae R6 ΔbceAB) [µg/mL] | Minimum Inhibitory Concentration, ΔbceAB/tcs01 [2] [µg/mL] | Minimum Inhibitory Concentration, WT (S. pneumoniae R6 WT) [µg/mL] | Fold sensitivity displayed by the KO strains (S. pneumoniae R6 WT) | Minimum Inhibitory Concentration, Δtcs01 (S. pneumoniae R6 Δtcs01) [µg/mL] | further results |
| --- | --- | --- | --- | --- | --- | --- |
| Nc1ncnc2c1ncn2[C@@H]1O[C@H](COP(=O)(O)OP(=O)(O)OP(=O)(O)O)[C@@H](O)[C@H]1O [ATP] | – | – | – | – | – | nH (positive cooperativity) [1]: 2.4 |
| Nc1nc2c(ncn2[C@@H]2O[C@H](COP(=O)(O)OP(=O)(O)OP(=O)(O)O)[C@@H](O)[C@H]2O)c(=O)[nH]1 [GTP] | – | – | – | – | – | nH (positive cooperativity) [1]: 1.9 |
| CC[C@H](C)CCCCC(=O)N[C@@H](CCN)C(=O)N[C@H](C(=O)N[C@@H](CCN)C(=O)N[C@H]1CCNC(=O)[C@H]([C@@H](C)O)NC(=O)[C@H](CCN)NC(=O)[C@H](CCN)NC(=O)[C@H](CC(C)C)NC(=O)[C@@H](CC(C)C)NC(=O)[C@H](CCN)NC1=O)[C@@H](C)O [colistin] (X1-[Dab]T[Dab][Dab][Dab][dL]L[Dab][Dab]T; lactam 4-C (inferred); N-terminus assumed) | 256 | 256 | 256 | 1 | 256 | – |
| CC[C@H](C)[C@H](N)C(=O)N[C@@H](CC(N)=O)C(=O)N[C@@H](CC(C)C)C(=O)N[C@@H](CCCCN)C(=O)N[C@@H](C)C(=O)N[C@@H](CC(C)C)C(=O)N[C@@H](C)C(=O)N[C@@H](C)C(=O)N[C@@H](CC(C)C)C(=O)N[C@@H](C)C(=O)N[C@@H](CCCCN)C(=O)N[C@@H](CCCCN)C(=O)N[C@H](C(=O)N[C@@H](CC(C)C)C(N)=O)[C@@H](C)CC [mastoporan] | – | – | – | 1 | – | – |
| Microbisporicin [Microbisporicin (NAI-107)] | 0.008 | 0.008 | 0.032 | 4 | 0.008 | – |
| Planosporicin [Planosporicin (NAI-97)] | 2 | 2 | 16 | 8 | 2 | – |
| actagardin | 2 | 2 | 32 | 16 | 2 | MIC, ΔbceAB-Δhk01-PcomX-hk01 [3]: 4 µg/mL; Minimum Inhibitory Concentration, WT (S. pneumoniae D39 WT): 32 µg/mL; Fold sensitivity diplayed by the KO strains (S. pneumoniae D39 WT): 16; Minimum Inhibitory Concentration, ΔbceAB (S. pneumoniae D39 ΔbceAB): 2 µg/mL; Minimum Inhibitory Concentration, Δtcs01 (S. pneumoniae D39 Δtcs01): 2 µg/mL; MIC, bceAB-gfp [4]: 32 µg/mL; MIC, ΔbceAB [5]: 4 µg/mL; MIC, Δhk01 (S. pneumoniae R800 Δhk01): 4 µg/mL; Minimum Inhibitory Concentration, ΔbceAB/tcs01 [6]: 2 µg/mL; MIC, WT (S. pneumoniae R800 WT): 32 µg/mL; MIC, Δhk01-PcomX-hk01 [7]: 32 µg/mL |
| gramicidin | 0.016 | 0.016 | 0.016 | 1 | 0.016 | – |
| ramoplanin | 0.02 | 0.02 | 0.02 | 1 | 0.02 | MIC, ΔbceAB-Δhk01-PcomX-hk01 [3]: 0.02 µg/mL; Minimum Inhibitory Concentration, WT (S. pneumoniae D39 WT): 0.03 µg/mL; Fold sensitivity diplayed by the KO strains (S. pneumoniae D39 WT): 1; Minimum Inhibitory Concentration, ΔbceAB (S. pneumoniae D39 ΔbceAB): 0.03 µg/mL; Minimum Inhibitory Concentration, Δtcs01 (S. pneumoniae D39 Δtcs01): 0.03 µg/mL; MIC, bceAB-gfp [4]: 0.02 µg/mL; MIC, ΔbceAB [5]: 0.02 µg/mL; MIC, Δhk01 (S. pneumoniae R800 Δhk01): 0.02 µg/mL; Minimum Inhibitory Concentration, ΔbceAB/tcs01 [6]: 0.03 µg/mL; MIC, WT (S. pneumoniae R800 WT): 0.02 µg/mL; MIC, Δhk01-PcomX-hk01 [7]: 0.02 µg/mL; Effect on ATPase activity of BceAB ([1]; BceAB proteoliposomes, Fig 7B, triplicates, representative of at least two experiments): clear inhibitory effect |
